{"source": "patent US4276430A", "about": "“Analgesic and anti-inflammatory compounds and compositions containing same” (The Procter & Gamble Company, priority 1979, dated 1981)", "key": {"[1]": {"test": "guinea pig ultraviolet light induced erythema test", "assay_type": "in vivo, guinea pig (Hartley strain albino)", "details": "Cavia porcellus; topical; cumulative blanching grades over a 1-4 hour period after application; vehicle propylene glycol/ethanol; read-out: IC50 (concentration which inhibits UV-induced erythema by 50%)", "protocol": "The compositions of this invention are evaluated for their anti-inflammation properties using a guinea pig ultraviolet light induced erythema test.\nHartley strain albino guinea pigs weighing between 400 and 500 grams are clipped on the dorsal area and then depilated using a cream hair remover. 15 minutes after the application of the hair remover, the area is thoroughly washed using warm tap water and then dried with a towel. […] Ten minutes irradiation constitutes a minimal erythema dose. An adhesive tape strip is attached to the center of the guinea pig's back to retain an unirradiated portion of skin. About 1 hour after irradiation time, 3 preparations are applied on each side using a micropipette. The treated areas are about 1×4 cm in size and are aligned vertically from near the center back down the side. The degree of blanching is determined at hourly intervals.\nCompositions as below are formulated and tested.\n*Dihydroxybenzoic acid derivative\nComparisons of the anti-inflammatory activity of the dihydroxybenzoic acid derivatives are made by calculating their IC50 values."}, "[2]": {"details": "administered orally; aspirin-based products; cited from earlier work"}, "[3]": {"details": "cited from earlier work"}, "[4]": {"test": "UV-induced pain test in humans: analgesic activity (radiant heat pain stimulus)", "assay_type": "in vivo, human", "details": "for Recovery of Treated Skin: 1% (w/w) in propylene glycol/ethanol", "from_the_text": "The UV-induced erythema and/or pain model consists of creating a burn with ultraviolet light (UV) and treating the resultant erythemal reaction with topical applications of the new drug formulations. At various time intervals, the degree of erythema and the pain tolerance response to radiant heat are monitored.\nExperiments have been designed to determine the effectiveness of benzyl 2,5-diacetoxybenzoate according to several parameters: treatment times, concentration of drug, repeated applications,duration of response, and vehicles.\nA total of 56 subjects were actually used in the UV-induced erythema and pain tests.\nThe compositions of the test formulations employed in these studies were as follows: […]\n(E) 0.01-0.5% (w/w) benzyl 2,5-diacetoxybenzoate in ethanol/propylene glycol/water (50/10/40, w/w/w);\n(G)* 0.025 to 2.5% (w/w) benzyl 2,5-diacetoxybenzoate in a cream vehicle;\nInduction of Erythema: Subjects were irradiated on a 2.5×20 cm area on their backs, using a bank of three 20S Westinghouse fluorescent lamps at a distance of 15 cm. Each subject received 2 to 4 MEDs of light (minimum erythemal dose) for these experiments.\nTreatment with Formulations: The UV-irradiated area was divided into 4 treatment sites. When liquid formulations were tested, up to 40 microliter were topically applied to each treatment site using an Eppendorf micropipet. When cream formulations were tested, no more than 100 microliter were topically applied to each treatment site using a 1 cc tuberculin syringe with no needle; the cream was rubbed into the skin with a gloved finger.\nEach site was treated no more than 4 times, and all treatments occurred within the 24-hour interval following UV-irradiation.\nA randomixed treatment sequence was used.\n2. Analgesic At suitable time\nElapsed time, in seconds,\nActivity intervals within\nto respond to a radiant\ntreated and untreated skin.\nSkin irradiated with 3-4 MEDs (minimal erythemal doses) of UV-B light (normal sunburn range) becomes hyperalgesic to radiant heat in about four hours.\nThe experimental design was regarded as randomized blocks, in which the subject is the \"block\". The variation between subjects with respect to erythema or analgesic response was accounted for as a source of variation in the Analysis of Variance (ANOVA)."}, "[5]": {"test": "UV-induced erythema test in humans: anti-erythemic activity (blanching)", "assay_type": "in vivo, human", "details": "for blanching response: first 3-4 hours after a single application"}, "[6]": {"test": "suppression of inflammation associated with arthritis (Mycobacterium butyricum, hind paw volume)", "assay_type": "in vivo, rat (Male Sprague-Dawley)", "details": "topical 20 mg/kg/day, five weeks", "protocol": "This example illustrates the efficacy of the dihydroxybenzoic acid derivatives described herein for suppressing the inflammation associated with arthritis.\nMale Sprague-Dawley rats, weighing between 180-200 grams, are injected subcutaneously in the distal third of the tail with a suspension of 0.8 mg of heat-killed Mycobacterium butyricum in 0.1 ml of mineral oil. This injection introduces arthritis into the rat as evidenced by pedal edema (swelling). Measurement of the alleviation of the inflammation associated with the arthritis is made by determining the volume of the hind paws initially, two weeks later, and each subsequent week thereafter. The paw volume measurements are obtained by immersing each rat's hind paw up to a predetermined mark in a mercury bath connected to a Statham pressure transducer. The increase in pressure within the bath is proportional to the volume of the paw introduced.\nA solution of benzyl 2,5-diacetoxybenzoate is made. The solution comprises a 1:1 mixture of propylene glycol and ethanol and 2% benzyl 2,5-diacetoxybenzoate. In one group, each rat is treated topically with 20 mg/kg/day of the benzyl 2,5-diacetoxybenzoate solution. The changes in paw volume after each treatment are compared to the control rats."}, "[7]": {"details": "vehicle propylene glycol/ethanol (50/50, w/w)"}}}
{"smiles": "CCCCC(CC)COC(=O)c1cc(OC(C)=O)ccc1OC(C)=O", "note": "(stereo not shown) [C2 H3 (C2 H5)C4 H9, 2'-ethylhexyl 2,5-diacetoxybenzoate]", "values": [{"measurement": "IC50", "setting": "[1]", "value": 5.8, "unit": "mM"}]}
{"smiles": "CCOC(=O)c1cc(OC(C)=O)ccc1OC(C)=O", "note": "[C2 H5]", "values": [{"measurement": "IC50", "setting": "[1]", "value": 1.8, "unit": "mM"}]}
{"smiles": "CCCCOC(=O)c1cc(OC(C)=O)ccc1OC(C)=O", "note": "[C4 H9, n-Butyl 2,5-diacetoxybenzoate]", "values": [{"measurement": "IC50", "setting": "[1]", "value": 1.2, "unit": "mM"}]}
{"smiles": "CCCCCCCCOC(=O)c1cc(OC(C)=O)ccc1OC(C)=O", "note": "[C8 H17]", "values": [{"measurement": "IC50", "setting": "[1]", "value": 0.34, "unit": "mM"}]}
{"smiles": "COC(=O)c1cc(OC(C)=O)ccc1OC(C)=O", "note": "[CH3]", "values": [{"measurement": "IC50", "setting": "[1]", "value": 2.3, "unit": "mM"}]}
{"smiles": "CC(=O)Oc1ccc(OC(C)=O)c(C(=O)OC(C)c2ccccc2)c1", "note": "(stereo not shown) [CH(C6 H5)CH3]", "values": [{"measurement": "IC50", "setting": "[1]", "value": 1.2, "unit": "mM"}]}
{"smiles": "CCCCCCOC(=O)c1cc(OC(C)=O)ccc1OC(C)=O", "note": "[C6 H13, Hexyl 2,5-diacetoxybenzoate]", "values": [{"measurement": "IC50", "setting": "[1]", "value": 0.34, "unit": "mM"}]}
{"smiles": "CCCCCCCCCCOC(=O)c1cc(OC(C)=O)ccc1OC(C)=O", "note": "[C10 H21, Decyl 2,5-diacetoxybenzoate]", "values": [{"measurement": "IC50", "setting": "[1]", "value": 0.65, "unit": "mM"}]}
{"smiles": "CCCOC(=O)c1cc(OC(C)=O)ccc1OC(C)=O", "note": "[C3 H7, Propyl 2,5-diacetoxybenzoate]", "values": [{"measurement": "IC50", "setting": "[1]", "value": 1.1, "unit": "mM"}]}
{"smiles": "CC(=O)Oc1ccccc1C(=O)O", "note": "[aspirin]", "values": [{"measurement": "gastric irritation and frank stomach bleeding, patients affected", "setting": "[2]", "value": "up to 70%"}, {"measurement": "skin irritation on repeated topical application", "setting": "[3]; repeated topical application of a high level", "value": "primary irritation and peeling of the superificial layers (the stratum corneum) of the skin"}, {"measurement": "concentration needed for topical analgesic effect", "setting": "[3]; topical", "value": "a relatively high concentration of aspirin must be topically applied before its effect as a topical analgesic is noted"}, {"measurement": "effect on inflammation in humans when applied topically", "setting": "[3]; topical", "value": "can delay and decrease inflammation in humans when applied topically"}]}
{"smiles": "CCCCCCCCCCCCOC(=O)c1cc(OC(C)=O)ccc1OC(C)=O", "note": "[C12 H25, Dodecyl 2,5-diacetoxybenzoate]", "values": [{"measurement": "IC50", "setting": "[1]", "value": 1.2, "unit": "mM"}]}
{"smiles": "CC(=O)Oc1ccc(OC(C)=O)c(C(=O)OCc2ccccc2)c1", "note": "[Benzyl 2,5-diacetoxybenzoate]", "values": [{"measurement": "Tests with Analgesic Responses", "setting": "[4]; 0.01% in Propylene Glycol/Ethanol (50/50, w/w)", "value": "1/6"}, {"measurement": "dose dependence of the analgesic response", "setting": "[4]; 0.01-1.0% in Propylene Glycol/Ethanol (50/50, w/w)", "value": "dose-dependent"}, {"measurement": "Tests with Analgesic Responses", "setting": "[4]; 0.1% in Propylene Glycol/Ethanol (50/50, w/w)", "value": "2/6"}, {"measurement": "analgesic activity, three applications compared with 2 or 1", "setting": "[4]; 0.25%", "value": "more effective than 2 or 1 applications"}, {"measurement": "analgesic activity, repeated application compared with single application", "setting": "[4]; 1%", "value": "failed to increase the level of analgesic activity effected by a single application"}, {"measurement": "time of maximum analgesic activity", "setting": "[4]; 1% (w/w) in propylene glycol/ethanol (50/50, w/w), treatment 2 to 6 hours after UV-irradiation, following treatment", "value": "2 to 4", "unit": "h"}, {"measurement": "duration of some analgesic effects", "setting": "[4]; 1% (w/w) in propylene glycol/ethanol (50/50, w/w), after treatment(s)", "value": "up to 10 hours"}, {"measurement": "Tests with Analgesic Responses", "setting": "[4]; 1.0% in Propylene Glycol/Ethanol (50/50, w/w)", "value": "9/12"}, {"measurement": "Recovery of Treated Skin", "setting": "[4]; 2-4 hours after treatment, 22 subjects, SE 0.5, normal minus non-treated skin 4.0", "value": 2.4, "unit": "s"}, {"measurement": "Recovery of Treated Skin", "setting": "[4]; 5-7 hours after treatment, 16 subjects, SE 0.4", "value": 1.6, "unit": "s"}, {"measurement": "Recovery of Treated Skin", "setting": "[4]; 8-10 hours after treatment, 6 subjects, SE 0.7", "value": 1.4, "unit": "s"}, {"measurement": "delivery of an efficacious dose into the skin, compared with propylene glycol/ethanol", "setting": "[4]; Ethanol/water (80/20), ethanol/propylene glycol/water (50/10/40), and a cream", "value": "somewhat less effective than propylene glycol/ethanol"}, {"measurement": "topical analgesic activity", "setting": "[4]; conclusion, rather severe and acute pain", "value": "does have topical analgesic activity for rather severe and acute pain"}, {"measurement": "return to normal pain tolerance", "setting": "[4]; in 8 out of the 12 tests, at least one concentration at one time point", "value": "≥ 80", "unit": "%"}, {"measurement": "analgesic action in non-irradiated skin", "setting": "[4]; non-irradiated skin", "value": "No evidence of analgesic action was found"}, {"measurement": "analgesic response by vehicle", "setting": "[4]; propylene glycol/ethanol (50/50, w/w) vehicle, compared with 4 vehicle systems", "value": "strongest analgesic activity"}, {"measurement": "analgesic activity", "setting": "[4]; skin treated 2 to 6 hours following UV-irradiation", "value": "Analgesic activity was demonstrated"}, {"measurement": "tests in which at least one concentration at one time point effected at least an 80% return to normal pain tolerance", "setting": "[4]; [7]", "value": "8 out of the 12"}, {"measurement": "tests with statistically significant analgesia", "setting": "[4]; [7]", "value": "9 out of 12"}, {"measurement": "blanching response", "setting": "[5]; 0.01%", "value": "distinctly weaker"}, {"measurement": "blanching response", "setting": "[5]; 0.03-2.5%", "value": "very similar responses"}, {"measurement": "blanching response, multiple application compared with single application", "setting": "[5]; 1 to 2.5%, 1 to 4 times within 24 hours", "value": "did not produce an effect greater than obtained with a single application"}, {"measurement": "half-life of the response (time for the maximum response to diminish 50%)", "setting": "[5]; after drug treatment", "value": "about 9 hours"}, {"measurement": "time of maximum blanching response", "setting": "[5]; after drug treatment", "value": "2 to 3", "unit": "h"}, {"measurement": "effect of treatment time on blanching response", "setting": "[5]; application from a few minutes to 24 hours following UV-irradiation", "value": "the earlier a given treatment was made after UV-irradiation, the greater the blanching response"}, {"measurement": "vehicle effectiveness, peak blanching response: rank 1 (decreasing order)", "setting": "[5]; at a given concentration", "value": "propylene glycol/ethanol (50/50, w/w)"}, {"measurement": "vehicle effectiveness, peak blanching response: rank 2 (decreasing order)", "setting": "[5]; at a given concentration", "value": "ethanol/propylene glycol/water (50/10/40, w/w/w)=cream"}, {"measurement": "vehicle effectiveness, peak blanching response: rank 3 (decreasing order)", "setting": "[5]; at a given concentration", "value": "ethanol/water (80/20, w/w)"}, {"measurement": "anti-erythemic activity", "setting": "[5]; conclusion", "value": "has anti-erythemic activity"}, {"measurement": "duration of some degree of blanching", "setting": "[5]; higher concentrations, after treatment, dose-related", "value": "5 to 11", "unit": "h"}, {"measurement": "blanching response, repeated application", "setting": "[5]; low concentrations, e.g., 0.03%, 1 to 4 times within 24 hours", "value": "high blanching response"}, {"measurement": "antierythemic activity by vehicle", "setting": "[5]; propylene glycol/ethanol (50/50, w/w) vehicle", "value": "highest antierythemic activity"}, {"measurement": "IC50", "setting": "[1]", "value": 0.4, "unit": "mM"}, {"measurement": "reduction in pedal edema compared to non-treated control group", "setting": "[6]; 2% solution in 1:1 propylene glycol and ethanol", "value": "significant improvement compared to the non-treated control group"}, {"measurement": "reduction in pedal edema compared with aspirin 200 mg/kg/day oral", "setting": "[6]", "value": "comparable"}]}
